# Reference: ChEMBL document CHEMBL1158055, “Grandisines C-G, indolizidine alkaloids from the Australian rainforest tree Elaeocarpus grandis” (J Nat Prod, 2006)
# Biological target: Delta-type opioid receptor (Homo sapiens, UniProt P41143)
# Experiment: Displacement of [125I]deltorphin 2 from human recombinant delta opioid receptor expressed in HEK293 cells
# Format: cell-based
# Delta-type opioid receptor, sequence (P41143 whole entry): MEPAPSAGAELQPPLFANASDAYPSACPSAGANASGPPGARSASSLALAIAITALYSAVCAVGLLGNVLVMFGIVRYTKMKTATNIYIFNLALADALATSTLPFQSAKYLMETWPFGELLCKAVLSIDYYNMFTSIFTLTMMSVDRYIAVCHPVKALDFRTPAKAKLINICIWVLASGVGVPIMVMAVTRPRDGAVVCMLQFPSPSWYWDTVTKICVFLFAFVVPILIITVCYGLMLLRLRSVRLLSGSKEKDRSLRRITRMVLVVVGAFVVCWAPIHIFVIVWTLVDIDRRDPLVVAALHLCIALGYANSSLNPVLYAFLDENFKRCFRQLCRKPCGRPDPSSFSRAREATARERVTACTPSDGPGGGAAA
row,SMILES,IC50
1,C[C@H]1CC=CC2=C1C(=O)[C@@H]1[C@@H](CCN3CCC[C@@H]13)O2,9.9 µM
2,C[C@H]1C[C@H](O)CC2=C1C(=O)[C@@H]1[C@@H](CCN3CCC[C@@H]13)O2 [GRANDISINE C],14.6 µM
3,C[C@H]1CC=CC(=O)[C@@H]1C(=O)C1=CCCN2CCC[C@@H]12 [GRANDISINE D],1.65 µM
4,C[C@H]1C[C@H](N)CC2=C1C(=O)[C@@H]1[C@@H](CCN3CCC[C@@H]13)O2 [GRANDISINE F],1.55 µM
5,COC(=O)C[C@@H]1C[C@H](C)CC(C2=CCCN3CCCC23)=N1 (stereo not given in full) [GRANDISINE G],75.4 µM
